Measured values published in patent US8921412B2, “C-aryl ansa SGLT2 inhibitors” (Green Cross Corporation, priority 2011, dated 2014).
Like-named read-outs stand apart in the source and are kept apart here.

Legend:
[1] = not given; remark: listed apart in the source
[2] = biological target: human SGLT2 (Homo sapiens (Human), UniProt P31639); experiment: Inhibitory effects on human SGLT2 activities (14C-AMG uptake in CHO cells expressing hSGLT2); assay type: cell-based; details: CHO cells stably expressing hSGLT2, 37° C., 2 h
Protocol: Human SGLT2 (hSGLT2) gene was amplified by PCR from cDNA-Human Adult Normal Tissue Kidney (Invitrogen). The hSGLT2 sequence was cloned into pcDNA3.1(+) for mammalian expression and were stably transfected into chinese hamster ovary (CHO) cells. SGLT2-expressing clones were selected based on resistance to G418 antibiotic (Geneticin) and activity in the ^14C-α-methyl-D-glucopyranoside (^14C-AMG) uptake assay.
For sodium-dependent glucose transport assay, cells expressing hSGLT2 were seeded into a 96-well culture plate at a density of 5×10^4 cells/well in RPMI medium 1640 containing 10% fetal bovine serum. The cells were used 1 day after plating. They were incubated in pretreatment buffer (10 mM HEPES, 5 mM Tris, 140 mM choline chloride, 2 mM KCl, 1 mM CaCl2, and 1 mM MgCl2, pH 7.4) at 37° C. for 10 min. They were then incubated in uptake buffer (10 mM HEPES, 5 mM Tris, 140 mM NaCl, 2 mM KCl, 1 mM CaCl2, 1 mM MgCl2, and 1 mM ^14C-nonlabeled AMG pH 7.4) containing ^14C-labeled AMG (8 μM) and the inventive compound or dimethyl sulfoxide (DMSO) vehicle at 37° C. for 2 h. Cells were washed twice with washing buffer (pretreatment buffer containing 10 mM AMG at room temperature) and then the radioactivity was measured using a liquid scintillation counter. IC50 was determined by nonlinear regression analysis using GraphPad PRISM [Katsuno, K. et al. J. Pharmacol. Exp. Ther. 2007, 320, 323-330; Han, S. et al. Diabetes, 2008, 57, 1723-1729].

Sequence of human SGLT2 (P31639 whole entry): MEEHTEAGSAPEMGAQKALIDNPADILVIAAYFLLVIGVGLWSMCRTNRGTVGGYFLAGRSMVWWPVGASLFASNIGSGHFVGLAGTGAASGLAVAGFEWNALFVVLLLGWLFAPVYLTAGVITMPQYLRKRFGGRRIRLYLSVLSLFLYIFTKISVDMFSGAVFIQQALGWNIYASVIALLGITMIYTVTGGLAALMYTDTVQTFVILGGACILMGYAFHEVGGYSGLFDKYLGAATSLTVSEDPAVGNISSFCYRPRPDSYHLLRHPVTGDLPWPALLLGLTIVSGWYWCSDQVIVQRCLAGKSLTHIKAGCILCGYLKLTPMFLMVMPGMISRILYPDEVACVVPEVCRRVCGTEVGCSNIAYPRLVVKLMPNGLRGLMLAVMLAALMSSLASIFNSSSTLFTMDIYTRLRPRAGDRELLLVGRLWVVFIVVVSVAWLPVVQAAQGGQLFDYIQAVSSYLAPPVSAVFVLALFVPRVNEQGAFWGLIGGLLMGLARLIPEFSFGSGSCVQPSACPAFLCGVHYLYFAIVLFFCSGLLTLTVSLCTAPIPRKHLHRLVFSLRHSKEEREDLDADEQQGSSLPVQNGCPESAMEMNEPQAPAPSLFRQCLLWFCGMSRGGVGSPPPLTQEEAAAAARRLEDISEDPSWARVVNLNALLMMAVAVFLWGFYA

IC50 [2] [nM]	Structure (SMILES)	also measured
–	CCOc1ccc(Cc2cc3c(cc2Cl)OCCCCCOC[C@H]2O[C@@H]3[C@H](OCc3ccccc3)[C@@H](OCc3ccccc3)[C@@H]2OCc2ccccc2)cc1	ring closure, yield of all isomers (from CCOc1ccc(Cc2cc([C@@H]3O[C@H](COCCCCCI)[C@@H](OCc4ccccc4)[C@H](OCc4ccccc4)[C@H]3OCc3ccccc3)c(O)cc2Cl)cc1, ether bond, potassium carbonate / 18-crown-6, toluene, 10.0 mM, 25.0 °C, 16.0 h): 64%; ring closure, isolated yield ([1]; from CCOc1ccc(Cc2cc([C@@H]3O[C@H](COCCCCCI)[C@@H](OCc4ccccc4)[C@H](OCc4ccccc4)[C@H]3OCc3ccccc3)c(O)cc2Cl)cc1, ether bond, 13-membered ring, K2CO3/18-crown-6, toluene, 10.0 mM, 25.0 °C): 64%
–	CCOc1ccc(Cc2cc3c(cc2Cl)OCC=CCOC[C@H]2O[C@@H]3[C@H](OCc3ccccc3)[C@@H](OCc3ccccc3)[C@@H]2OCc2ccccc2)cc1	ring closure, yield of all isomers (from C=CCOC[C@H]1O[C@@H](c2cc(Cc3ccc(OCC)cc3)c(Cl)cc2OCC=C)[C@H](OCc2ccccc2)[C@@H](OCc2ccccc2)[C@@H]1OCc1ccccc1, rcm bond, Grubbs 2nd generation catalyst, dichloromethane, 9.6 mM, 60.0 °C, 16.0 h): 26%; ring closure, isolated yield ([1]; from C=CCOC[C@H]1O[C@@H](c2cc(Cc3ccc(OCC)cc3)c(Cl)cc2OCC=C)[C@H](OCc2ccccc2)[C@@H](OCc2ccccc2)[C@@H]1OCc1ccccc1, rcm bond, 12-membered ring, Grubbs II (11 mol%), DCM, 9.6 mM, 60.0 °C): 26%
2.27	CCOc1ccc(Cc2cc3c(cc2Cl)OCCCCOC[C@H]2O[C@@H]3[C@H](O)[C@@H](O)[C@@H]2O)cc1 [Example 2, (8R,9S,10R,11R,12S)-15-Chloro-14-(4-ethoxybenzyl)-2,3,4,5,7,8,9,10,11,12-decahydro-2H-8,12-epoxybenzo[g][1,6]dioxacyclotetradecine-9,10,11-triol]	–
1.4	CCc1ccc(Cc2cc3c(cc2Cl)OCCCCOC[C@H]2O[C@@H]3[C@H](O)[C@@H](O)[C@@H]2O)cc1 [Example 8, (8R,9S,10R,11R,12S)-15-Chloro-14-(4-ethylbenzyl)-2,3,4,5,7,8,9,10,11,12-decahydro-8,12-epoxybenzo[g][1,6]dioxacyclotetradecine-9,10,11-triol]	–
1.38	CCc1ccc(Cc2cc3c(cc2Cl)OCCCCCOC[C@H]2O[C@@H]3[C@H](O)[C@@H](O)[C@@H]2O)cc1 [Example 9, (9R,10S,11R,12R,13S)-16-Chloro-15-(4-ethylbenzyl)-3,4,5,6,8,9,10,11,12,13-decahydro-2H-9,13-epoxybenzo[h][1,7]dioxacyclopentadecine-10,11,12-triol]	–
2.3	CCOc1ccc(Cc2cc3c(cc2Cl)OC[C@H]2C[C@H]2COC[C@H]2O[C@@H]3[C@H](O)[C@@H](O)[C@@H]2O)cc1 [Example 15, (4R,5S,6R,7R,8S)-11-Chloro-10-(4-ethoxybenzyl)-(1aR,14aS)-1a,2,4,5,6,7,8,9,10-octahydro-1H-4,8-epoxybenzo[g]cyclopropa[c][1,6]dioxacyclotetradecine-5,6,7-triol]	–
3.63	CCOc1ccc(Cc2cc3c(cc2Cl)OCCCCCCOC[C@H]2O[C@@H]3[C@H](O)[C@@H](O)[C@@H]2O)cc1 [Example 6, (10R,11S,12R,13R,14S)-17-Chloro-16-(4-ethoxybenzyl)-2,3,4,5,6,7,9,10,11,12,13,14-dodecahydro-10,14-epoxybenzo[i][1,8]dioxacyclohexadecine-11,12,13-triol]	–
14	CCOc1ccc(Cc2cc3c(cc2Cl)OC[C@@H]2C[C@@H]2COC[C@H]2O[C@@H]3[C@H](O)[C@@H](O)[C@@H]2O)cc1 [Example 16, (4R,5S,6R,7R,8S)-11-Chloro-10-(4-ethoxybenzyl)-(1aS,14aR)-1a,2,4,5,6,7,8,9,10-octahydro-1H-4,8-epoxybenzo[g]cyclopropa[c][1,6]dioxacyclotetradecine-5,6,7-triol]	–
3.65	O[C@@H]1[C@@H](O)[C@H]2O[C@H](COCCCCOc3cc(Cl)c(Cc4ccc5c(c4)OCCO5)cc32)[C@H]1O [Example 13, (8R,9S,10R,11R,12S)-15-Chloro-14-((2,3-dihydrobenzo[b][1,4]dioxin-6-yl)-methyl)-2,3,4,5,7,8,9,10,11,12-decahydro-8,12-epoxybenzo[g][1,6]dioxacyclotetradecine-9,10,11-triol]	–
0.778	CSc1ccc(Cc2cc3c(cc2Cl)OCCCCCOC[C@H]2O[C@@H]3[C@H](O)[C@@H](O)[C@@H]2O)cc1 [Example 12, (9R,10S,11R,12R,13S)-16-Chloro-15-(4-(methylthio)benzyl)-3,4,5,6,8,9,10,11,12,13-decahydro-2H-9,13-epoxybenzo[h][1,7]dioxacyclopentadecine-10,11,12-triol]	–
–	CCOc1ccc(Cc2cc3c(cc2Cl)OCC=CCOC[C@H]2O[C@@H]3[C@H](OC(C)=O)[C@@H](OC(C)=O)[C@@H]2OC(C)=O)cc1	ring closure, yield of all isomers (from C=CCOC[C@H]1O[C@@H](c2cc(Cc3ccc(OCC)cc3)c(Cl)cc2OCC=C)[C@H](OC(C)=O)[C@@H](OC(C)=O)[C@@H]1OC(C)=O, rcm bond, Grubbs 2nd generation catalyst, dichloromethane, 5.0 mM, 60.0 °C, 72.0 h): 23%; ring closure, isolated yield ([1]; from C=CCOC[C@H]1O[C@@H](c2cc(Cc3ccc(OCC)cc3)c(Cl)cc2OCC=C)[C@H](OC(C)=O)[C@@H](OC(C)=O)[C@@H]1OC(C)=O, rcm bond, 12-membered ring, Grubbs II (20 mol%), DCM, 5.0 mM, 60.0 °C): 23%
0.974	CCOc1ccc(Cc2cc3c(cc2Cl)OC/C=C\COC[C@H]2O[C@@H]3[C@H](O)[C@@H](O)[C@@H]2O)cc1 [Example 1, (8R,9S,10R,11R,12S)-15-Chloro-14-(4-ethoxybenzyl)-2,5,7,8,9,10,11,12-octahydro-2H-8,12-epoxybenzo[g][1,6]dioxacyclotetradecine-9,10,11-triol]	–
1.4	CCc1ccc(Cc2cc3c(cc2Cl)OCCCCCCOC[C@H]2O[C@@H]3[C@H](O)[C@@H](O)[C@@H]2O)cc1 [Example 10, (10R,11S,12R,13R,14S)-17-Chloro-16-(4-ethylbenzyl)-2,3,4,5,6,7,9,10,11,12,13,14-dodecahydro-10,14-epoxybenzo[i][1,8]dioxacyclohexadecine-11,12,13-triol]	–
1.38	O[C@@H]1[C@@H](O)[C@H]2O[C@H](COCCCCCOc3cc(Cl)c(Cc4ccc5c(c4)OCCO5)cc32)[C@H]1O [Example 14, (9R,10S,11R,12R,13S)-16-Chloro-15-((2,3-dihydrobenzo[b][1,4]dioxin-6-yl)-methyl)-3,4,5,6,8,9,10,11,12,13-decahydro-2H-9,13-epoxybenzo[h][1,7]dioxacyclopentadecine-10,11,12-triol]	–
1.35	CSc1ccc(Cc2cc3c(cc2Cl)OCCCCOC[C@H]2O[C@@H]3[C@H](O)[C@@H](O)[C@@H]2O)cc1 [Example 11, (8R,9S,10R,11R,12S)-15-Chloro-14-(4-(methylthio)benzyl)-2,3,4,5,7,8,9,10,11,12-decahydro-8,12-epoxybenzo[g][1,6]dioxacyclotetradecine-9,10,11-triol]	–
–	CCOc1ccc(Cc2cc3c(cc2Cl)OC[C@H]2C[C@H]2COC[C@H]2O[C@@H]3[C@H](OCc3ccccc3)[C@@H](OCc3ccccc3)[C@@H]2OCc2ccccc2)cc1	ring closure, yield of all isomers (from CCOc1ccc(Cc2cc([C@@H]3O[C@H](CO)[C@@H](OCc4ccccc4)[C@H](OCc4ccccc4)[C@H]3OCc3ccccc3)c(OC[C@H]3C[C@H]3CI)cc2Cl)cc1, ether bond, sodium hydride, N,N-dimethylformamide, 47.0 mM, 25.0 °C, 3.0 h): 63%; ring closure, isolated yield ([1]; from CCOc1ccc(Cc2cc([C@@H]3O[C@H](CO)[C@@H](OCc4ccccc4)[C@H](OCc4ccccc4)[C@H]3OCc3ccccc3)c(OC[C@H]3C[C@H]3CI)cc2Cl)cc1, ether bond, 12-membered ring, NaH, DMF, 47.0 mM, 25.0 °C): 63%
0.899	CCOc1ccc(Cc2cc3c(cc2Cl)OCCCCCOC[C@H]2O[C@@H]3[C@H](O)[C@@H](O)[C@@H]2O)cc1 [Example 3, (9R,10S,11R,12R,13S)-16-Chloro-15-(4-ethoxybenzyl)-3,4,5,6,8,9,10,11,12,13-decahydro-2H-9,13-epoxybenzo[h][1,7]dioxacyclopentadecine-10,11,12-triol]	–
